These results are taken from patent US20060068012A1, “Process for preparing poly (vinyl alcohol) drug delivery devices with humidity control” (Bausch & Lomb Incorporated, priority 2004, published 2006).

The data set is described as follows: thermal stability of the medicament at poly(vinyl alcohol) curing temperature. In kind it is physicochemical. The conditions noted are these: heating during curing of poly(vinyl alcohol). The method, then:
Optionally, the temperature proximate the first drug delivery device and the temperature proximate the second drug delivery device is a minimum of about 120° C. and a maximum of about 210° C. In an embodiment, the temperature proximate the first drug delivery device and the temperature proximate the second drug delivery device is a minimum of about 125° C., about 130° C., about 135° C. or about 140° C. and/or a maximum of about 210° C., about 200° C., about 180° C., about 170° C., about 150° C. or about 140° C. The desired temperature for curing the poly(vinyl alcohol) is dependent upon several factors. If a temperature is selected below about 120° C., the poly(vinyl alcohol) will not cure effectively. If the temperature is above about 210° C., decomposition of the poly(vinyl alcohol) will occur. If the poly(vinyl alcohol) is cured in the presence of the medicament, the stability of the medicament must be considered. For example, flucinolone acetonide begins to decompose above a temperature of about 165° C. Thus, it is desired that a temperature for curing poly(vinyl alcohol) in the presence of flucinolone acetonide be in the range of about 120° C. to about 150° C. and preferably about 135° C.

As for `CC1(C)O[C@@H]2C[C@H]3[C@@H]4C[C@H](F)C5=CC(=O)C=C[C@]5(C)[C@@]4(F)[C@@H](O)C[C@]3(C)[C@]2(C(=O)CO)O1` [flucinolone acetonide], the “temperature above which the medicament begins to decompose” value was greater than 165 °C.
